{"source": "patent EP1857450A1", "about": "“Novel enantiomeric compounds for treatment of cardiac arrhythmias and methods of use” (Aryx Therapeutics, priority 1999, dated 2001)", "key": {"anesthetized rats": {"system": "anesthetized rats", "test": "Anti-arrhythmic activity in anesthetized rats (benzene/adrenaline challenge, EKG recording)", "assay_type": "in vivo, Male Sprague-Dawley rats", "conditions": "for protection against tachyarrhythmia (increased heart rate) produced by adrenaline: potency: drug administered from time 0 to time 120 minutes; for time at which activity against VPB is lost: drug administration time 0 to 120 min; for PR interval / QRS interval / QT interval / Heart rate (beats/minute) / Inhibition of tachycardia / Number of VPB / Inhibition of VPB: isolated enantiomer as compared to the respective racemate; for PR interval / QRS interval / QT interval: EKG; for Number of VPB / Inhibition of VPB: benzene/adrenaline challenge; for Inhibition of VPB: 4 mg/kg i.v. then 12 mg/kg/h for 2 hours; for activity against VPB at the end of the washout period: time 180 min; for inhibition of the formation of ventricular premature beats (VPB): whole period of drug administration (time 0 to 120 min)", "procedure": "Male Sprague-Dawley rats with body weights of 410 ± 30 g (Harlan Sprague Dawley Inc., Indianapolis, IN), were anesthetized with sodium pentobarbital (50 mg/kg i.p. - Butler Co., Columbus, OH). The skin from the neck area was removed and the jugular veins on both sides were cleared of connective tissue. Both jugular veins and the left carotid artery were isolated, and the latter tied up cranially with a surgical silk (ETHICON 4-0, Ethicon Inc., Australia). A plastic catheter ([…] 19ga, Vecton Dickinson, Sandy, UT), filled with a solution containing 10% sodium heparin (Elkins-Sinn Inc., Cherry Hill, NJ) in normal saline (100 U/ml sodium heparin), was introduced into the artery and fixed with surgical silk.\nThe catheter was connected to a pressure transducer (OHMEDA P23-XL, Ohmeda Medical Devices Division Inc., Madison, WI), filled with the same heparinized 0.9% NaCl solution, to register beat-to-beat arterial pressure. Needle electrodes were inserted s.c., and together with the pressure transducer, were joined to a GOULD TA 2000 recorder. Leads II, aVF and intraarterial blood pressure were monitored simultaneously throughout the experiments and recorded at certain intervals at 50 and 200 mm/sec paper speed.\nThe surgery was completed with an incision on the trachea where a short plastic tubing was placed and the animal was connected to a rodent-model ventilator (HARVARD Model 683, Harvard Apparatus, Inc., Holliston, MA). The animals were ventilated in a controlled way, depending on their spontaneous breathing frequency (55-75/min).\nDrug administrations were carried out through i.v. catheters (TERUMO 24 GA*3/4\", Terumo Medical Corp., Elkton, MD) inserted into both jugular veins. The left side was used for drug infusions by means of a syringe pump (SAGE INSTRUMENTS, Model 341B, Orion Res. Inc., Boston, MA), and the right side was used for adrenaline injections. The experiments were started after at least 15 minutes of stabilization. Benzene/adrenaline challenges were performed as follows: the respirator inlet was connected to a 50-ml bubbler half-full with benzene (Fisher Scientific, Fair Lawn, NJ) so that the inspired air was saturated with benzene vapor. The animal was ventilated with benzene vapor for two minutes. The tidal volume was typically 1 ml/100g of animal. During the last 30 seconds of benzene ventilation, 10 µg/kg adrenaline solution (in 0.9% NaCl) was injected into the right jugular vein. […] These arrhythmias could be elicited repeatedly. After three control VTs (at -30, -20 and -10 minutes), the test compounds were injected slowly during 30 seconds at a dose of 4 mg/kg i.v., immediately followed by a slow infusion of 12 mg/kg/h for 2 hours. The flow rate during the infusion period was 1 ml/h.\nThere were 5 rats per test compound and each animal served as its own control. The ability of the different drugs to suppress arrhythmias was tested against repeated benzene/adrenaline challenges at 5, 15, 30, 45, 60, 90, 120 (end of drug infusion), 135, 150, 165 and 180 minutes after the i.v. bolus injection. The amplitudes of the systolic arterial pressure and diastolic arterial pressure […] with the help of a pressure-amplitude calibration curve. Heart rate, number of ventricular complexes during the occurrence of VTs and VPBs, and certain ECG parameters (PR, QRS, QT durations and RR cycle lengths in msec) were also recorded and measured manually. At each time-point, 3-5 cycles were measured and the average values were entered into EXCEL Windows 97. The average and standard deviation for the five experimental animals per compound were calculated."}, "[1]": {"assay_type": "in vitro ADME", "conditions": "human", "procedure": "Venous blood (60 ml) was collected in heparinized 15-ml Vacutainer® tubes from the forearm of five human volunteers. Each tube contained 1,000 units of heparin sodium salt. The blood was immediately centrifuged at 2,000 g for 10 minutes and the plasma was collected. Immediately after collection, the plasma was divided into 2-ml aliquots in borosilicate glass tubes (5-ml capacity) capped with a plastic stopper. The tubes were then equilibrated in a 37°C-water bath for at least 15 minutes before the test samples were added.\nStock solutions were prepared by dissolving 25 µmoles (about 18 mg) of each of the test compounds in 10 ml of deionized water. To each of the glass tubes containing 2 ml of fresh plasma, equilibrated at 37°C, was added 40 µl of the stock solutions (one test compound per tube). The plasma/stock solutions were then mixed. Samples (250 µl) were collected at time 0 (immediately after mixing test compounds in plasma) and then at 30, 60, 90, 120, 180, 240, and 300 minutes. The test tubes were capped, to avoid concentration due to evaporation, and left in the 37°C bath during the entire experiment. Each aliquot was immediately introduced into a 1.5-ml microfuge tube containing 20 µl of a 0.01% solution of diethyl paranitrophenylphosphate (paraoxon) in ethanol in order to inhibit esterase activity. The tubes were then capped and vortexed, then kept at -20°C until analysis. The samples were thawed and mixed with 750 µl of a 0.1 % solution of trifluoroacetic acid (TFA) in acetonitrile, vortexed for thorough mixing, and then centrifuged at 12,000 g for 15 minutes. The supernatant was collected for injection in the HPLC system.\nThe HPLC mobile phase consisted of acetonitrile and water containing 0.1% TFA and 400 mg/L benzyltriethylammonium chloride (BTEAC) in the following proportions and flow rates: 85% acetonitrile and 15% water at 2.0 ml/min. The detection wavelength was set at 242 nm, and the injected volume was 100 µL. The HPLC peaks were recorded, and the integrated values were plotted against time using the SIGMAPLOT software version 4.0 for WINDOWS. The resulting curves were fitted to a first-order exponential decay equation from which hydrolysis half-lives were calculated."}}}
{"smiles": "CC[C@H](C)OC(=O)Cc1oc2ccccc2c1C(=O)c1cc(I)c(OCCN(CC)CC)c(I)c1", "note": "[ATI-2042]", "values": [{"measurement": "protection against tachyarrhythmia (increased heart rate) produced by adrenaline: potency", "setting": "anesthetized rats", "result": "very good protection against this tachyarrhythmia"}]}
{"smiles": "CCN(CC)CCOc1c(I)cc(C(=O)c2c(CC(=O)OC(C)C(C)C)oc3ccccc23)cc1I", "note": "(stereo not drawn) [ATI-2055]", "values": [{"measurement": "protection against tachyarrhythmia (increased heart rate) produced by adrenaline: potency", "setting": "anesthetized rats", "result": "inhibits the tachycardia"}]}
{"smiles": "CC[C@@H](C)OC(=O)Cc1oc2ccccc2c1C(=O)c1cc(I)c(OCCN(CC)CC)c(I)c1", "note": "[Compound R-2042, (R)-sec-Butyl 2-[3-(3,5-diiodo-4-(2-diethylaminoethyloxy)benzoyl)]benzofurane-acetate]", "values": [{"measurement": "time at which activity against VPB is lost", "setting": "anesthetized rats; benzene vapors and adrenaline", "result": "~100", "unit": "min"}, {"measurement": "PR interval", "setting": "anesthetized rats", "result": "shorter"}, {"measurement": "QRS interval", "setting": "anesthetized rats", "result": "no change"}, {"measurement": "QT interval", "setting": "anesthetized rats", "result": "no change"}, {"measurement": "Heart rate (beats/minute)", "setting": "anesthetized rats; adrenaline injection", "result": "lower"}, {"measurement": "Inhibition of tachycardia", "setting": "anesthetized rats; adrenaline injection", "result": "longer"}, {"measurement": "Number of VPB", "setting": "anesthetized rats", "result": "lower"}, {"measurement": "Inhibition of VPB", "setting": "anesthetized rats", "result": "longer"}, {"measurement": "activity against VPB at the end of the washout period", "setting": "anesthetized rats", "result": "completely inactive"}, {"measurement": "Plasma half-life", "setting": "[1]", "result": 5.0, "unit": "h"}]}
{"smiles": "CCN(CC)CCOc1c(I)cc(C(=O)c2c(CC(=O)O[C@H](C)C(C)C)oc3ccccc23)cc1I", "note": "[Compound R-2055, (R)-(3-Methyl)-2butyl 2-[3-(3,5-diiodo-4-(2-diethylaminoethyloxy)benzoyl)]benzo-furaneacetate]", "values": [{"measurement": "duration of effect on tachycardia", "setting": "anesthetized rats; adrenaline injection", "result": "longer-lasting effect than S-2055"}, {"measurement": "PR interval", "setting": "anesthetized rats", "result": "shorter"}, {"measurement": "QRS interval", "setting": "anesthetized rats", "result": "longer"}, {"measurement": "QT interval", "setting": "anesthetized rats", "result": "no change"}, {"measurement": "Heart rate (beats/minute)", "setting": "anesthetized rats; adrenaline injection", "result": "lower"}, {"measurement": "Inhibition of tachycardia", "setting": "anesthetized rats; adrenaline injection", "result": "longer"}, {"measurement": "Number of VPB", "setting": "anesthetized rats", "result": "lower"}, {"measurement": "Inhibition of VPB", "setting": "anesthetized rats", "result": "longer"}, {"measurement": "activity against VPB at the end of the washout period", "setting": "anesthetized rats", "result": "still retained part of its activity"}, {"measurement": "inhibition of the formation of ventricular premature beats (VPB)", "setting": "anesthetized rats; benzene vapors and adrenaline", "result": "totally inhibited the formation of ventricular premature beats"}, {"measurement": "Plasma half-life", "setting": "[1]", "result": 11.7, "unit": "h"}]}
{"smiles": "CC[C@H](C)OC(=O)Cc1oc2ccccc2c1C(=O)c1cc(I)c(OCCN(CC)CC)c(I)c1", "note": "[Compound S-2042, (S)-sec-Butyl 2-[3-(3,5-diiodo-4-(2-diethylaminoethytoxy)benzoyl)]benzofurane-acetate]", "values": [{"measurement": "protection against tachyarrhythmia (increased heart rate) produced by adrenaline: potency", "setting": "anesthetized rats", "result": "more potent and longer acting then R-2042"}, {"measurement": "PR interval", "setting": "anesthetized rats", "result": "longer"}, {"measurement": "QRS interval", "setting": "anesthetized rats", "result": "longer"}, {"measurement": "QT interval", "setting": "anesthetized rats", "result": "longer"}, {"measurement": "Heart rate (beats/minute)", "setting": "anesthetized rats; adrenaline injection", "result": "lower"}, {"measurement": "Inhibition of tachycardia", "setting": "anesthetized rats; adrenaline injection", "result": "longer"}, {"measurement": "Number of VPB", "setting": "anesthetized rats", "result": "lower"}, {"measurement": "Inhibition of VPB", "setting": "anesthetized rats", "result": "longer"}, {"measurement": "effects on the PR segment of the EKG recording (Class-IV activity): potency", "setting": "anesthetized rats; rat, in vivo", "result": "much more potent than R-2042 and the racemate R,S-2042"}, {"measurement": "effects on the QT segment of the EKG recording (Class-III properties): potency", "setting": "anesthetized rats; rat, in vivo", "result": "the most potent and the longest acting"}, {"measurement": "activity against VPB at the end of the washout period", "setting": "anesthetized rats", "result": "still retained part of its activity"}, {"measurement": "inhibition of the formation of ventricular premature beats (VPB)", "setting": "anesthetized rats; benzene vapors and adrenaline", "result": "totally inhibited the formation of ventricular premature beats"}, {"measurement": "Plasma half-life", "setting": "[1]", "result": 7.3, "unit": "h"}]}
{"smiles": "CCN(CC)CCOc1c(I)cc(C(=O)c2c(CC(=O)O[C@@H](C)C(C)C)oc3ccccc23)cc1I", "note": "[Compound S-2055, (S) - (3 - Methyl) - 2 butyl 2-[3-(3,5-diiodo-4-(2-diethylaminoethyloacy)benzoyl)]benzo-furaneacetate]", "values": [{"measurement": "time at which activity against VPB is lost", "setting": "anesthetized rats; benzene vapors and adrenaline", "result": "~40", "unit": "min"}, {"measurement": "PR interval", "setting": "anesthetized rats", "result": "shorter"}, {"measurement": "QRS interval", "setting": "anesthetized rats", "result": "longer"}, {"measurement": "QT interval", "setting": "anesthetized rats", "result": "no change"}, {"measurement": "Heart rate (beats/minute)", "setting": "anesthetized rats; adrenaline injection", "result": "lower"}, {"measurement": "Inhibition of tachycardia", "setting": "anesthetized rats; adrenaline injection", "result": "longer"}, {"measurement": "Number of VPB", "setting": "anesthetized rats", "result": "lower"}, {"measurement": "Inhibition of VPB", "setting": "anesthetized rats", "result": "longer"}, {"measurement": "activity against VPB at the end of the washout period", "setting": "anesthetized rats", "result": "completely inactive"}, {"measurement": "Plasma half-life", "setting": "[1]", "result": 8.8, "unit": "h"}]}
{"smiles": "CC[C@H](C)OC(=O)Cc1oc2ccccc2c1C(=O)c1cc(I)c(OCCN(CC)CC)c(I)c1", "note": "[R,S-2042]", "values": [{"measurement": "activity against VPB of the racemate relative to the enantiomers", "setting": "anesthetized rats; benzene vapors and adrenaline", "result": "even less active than either the R- or the S-isomer"}, {"measurement": "protection against tachyarrhythmia (increased heart rate) produced by adrenaline: potency", "setting": "anesthetized rats", "result": "the least potent and shortest acting"}]}
